This experiment addresses T1, chymase (Golden hamster, UniProt A0A1U7QTH6).
T1 sequence (A0A1U7QTH6 whole entry): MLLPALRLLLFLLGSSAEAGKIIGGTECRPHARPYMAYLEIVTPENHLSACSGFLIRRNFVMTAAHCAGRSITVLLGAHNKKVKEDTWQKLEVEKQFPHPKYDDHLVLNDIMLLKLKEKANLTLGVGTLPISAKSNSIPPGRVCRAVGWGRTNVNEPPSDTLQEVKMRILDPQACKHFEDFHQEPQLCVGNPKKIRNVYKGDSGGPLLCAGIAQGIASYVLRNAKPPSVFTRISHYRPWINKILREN
Kind of experiment: Enzymatic Chymase Assay. Conditions: pH 7.5.

Values joined by “and” are separate entries in the source; they are usually repeats but may differ in a detail not shown here. Equal entries are not always repeated.

Drawing on BindingDB's records for patent US9695131 (Bayer Pharma Aktiengesellschaft, 2017), this text covers IC50 for 44 compounds.

In turn, `Cc1c(Cn2c(=O)c(C(=O)NCC#N)cn(-c3ccc(N4CCNC4=O)cc3)c2=O)cccc1C(F)(F)F` [US9695131, 55] returned an IC50 of 238 nM.

`Cn1c(=O)oc2cc(-n3cc(C(N)=O)c(=O)n([C@@H]4CCc5c4cccc5C(F)(F)F)c3=O)ccc21` [US9695131, 41] yielded an IC50 of 12 nM.

As to `Cn1c(=O)oc2cc(-n3cc(-c4noc(=O)[nH]4)c(=O)n([C@@H]4CCc5c4cccc5C(F)(F)F)c3=O)ccc21` [US9695131, 38], the IC50 turned out to be 8.1 nM. Compound `COc1ccc(-n2cc(-c3noc(=O)[nH]3)c(=O)n(Cc3cccc(C(F)(F)F)c3C)c2=O)cc1OC` [US9695131, 36] had an IC50 of 19 nM.

As for `Cc1c(Cn2c(=O)c(C(=O)NC(CO)C(=O)O)cn(-c3ccc(N4CCNC4=O)cc3)c2=O)cccc1C(F)(F)F` (centres undefined) [US9695131, 61], the IC50 amounted to 17 nM.

The compound `Cn1c(=O)sc2cc(-n3cc(-c4nnn[nH]4)c(=O)n(C4CCc5c(Cl)cccc54)c3=O)ccc21` (racemic) [US9695131, 23] came in with an IC50 of 7.3 nM.

As for `Cc1c(Cn2c(=O)c(C#N)cn(-c3ccc(N4CCNC4=O)cc3)c2=O)cccc1C(F)(F)F` [US9695131, 4], the IC50 was 48 nM. `Cc1c(Cn2c(=O)c(C(=O)NC(C)C(=O)O)cn(-c3ccc4c(c3)ncn4C)c2=O)cccc1C(F)(F)F` (racemic) [US9695131, 57] came in with an IC50 of 19 nM. As for `Cn1c(=O)sc2cc(-n3cc(C(N)=O)c(=O)n([C@@H]4CCc5c4cccc5C(F)(F)F)c3=O)ccc21` [US9695131, 42], the figure is 9.8 nM; as for `Cc1c(C#N)c(=O)n([C@@H]2CCc3c2cccc3C(F)(F)F)c(=O)n1-c1ccc2c(c1)oc(=O)n2C` [US9695131, 12], 7.6 nM. The compound `CCOC(=O)C1(NC(=O)c2cn(-c3ccc4c(c3)n(C)c(=O)n4C)c(=O)n(Cc3cccc(C(F)(F)F)c3C)c2=O)CCC1` [US9695131, 50] displayed an IC50 of 39 nM. On to `Cn1c(=O)sc2cc(-n3cc(-c4nnn[nH]4)c(=O)n([C@@H]4CCc5c4cccc5C(F)(F)F)c3=O)ccc21` [US9695131, 15], for which the IC50 came out at 2.8 nM. As for `Cc1c(Cn2c(=O)c(-c3nsc(=O)[nH]3)cn(-c3ccc(N4CCOC4=O)cc3)c2=O)cccc1C(F)(F)F` [US9695131, 39], the figure is 16 nM; as for `COc1ccc(-n2cc(C(=O)NCCC(=O)O)c(=O)n(Cc3cccc(Cl)c3Cl)c2=O)cc1` [US9695131, 59], 914 nM. Regarding `CCOC(=O)C(C)(C)NC(=O)c1cn(-c2ccc3c(c2)n(C)c(=O)n3C)c(=O)n(Cc2cccc(C(F)(F)F)c2C)c1=O` [US9695131, 48], the 50% inhibitory concentration (IC50) stood at 54 nM. `COc1ccc(-n2cc(-c3nnn[nH]3)c(=O)n(Cc3cccc(C(F)(F)F)c3Cl)c2=O)cc1` [US9695131, 26]: inhibition was half-maximal at 44 nM (IC50).

As to `Cn1c(=O)oc2cc(-n3cc(-c4nnn[nH]4)c(=O)n([C@@H]4CCc5c4cccc5C(F)(F)F)c3=O)ccc21` [US9695131, 14], inhibition was half-maximal at 3.5 nM (IC50).

`Cc1c(Cn2c(=O)c(C#N)cn(-c3ccc4c(c3)n(C)c(=O)n4C)c2=O)cccc1C(F)(F)F` [US9695131, 6]: the IC50 was 6.6 nM. In turn, `Cn1c(=O)sc2cc(-n3cc(C#N)c(=O)n([C@@H]4CCc5c4cccc5C(F)(F)F)c3=O)ccc21` [US9695131, 3] showed a concentration for half-maximal inhibition (IC50) of 8.7 nM.

On to `Cc1c(Cn2c(=O)c(C(=O)NC(C)(C)C(=O)O)cn(-c3ccc4c(c3)n(C)c(=O)n4C)c2=O)cccc1C(F)(F)F` [US9695131, 49], for which 3.6 nM corresponded to half-maximal inhibition (IC50). As for `Cn1c(=O)n(C)c2cc(-n3cc(-c4nnn[nH]4)c(=O)n(C4CCc5c(Cl)cccc54)c3=O)ccc21` (centres undefined) [US9695131, 18], the IC50 is 4.6 nM and 2.8 nM. For `Cn1c(=O)oc2cc(-n3cc(-c4nnn[nH]4)c(=O)n(C4CCCc5c(Cl)cccc54)c3=O)ccc21` (racemic) [US9695131, 30], the midpoint of inhibition, the IC50, lay at 13 nM. `Cc1c(Cn2c(=O)c(C(N)=O)cn(-c3ccc(N4CCNC4=O)cc3)c2=O)cccc1C(F)(F)F` [US9695131, 52] returned an IC50 of 94 nM. `COc1ccc(-n2cc(C#N)c(=O)n(Cc3cccc(C(F)(F)F)c3C)c2=O)cc1OC` [US9695131, 9] gave an IC50 of 35 nM. The compound `Cc1c(Cn2c(=O)c(-c3noc(=O)[nH]3)cn(-c3ccc4c(c3)n(C)c(=O)n4C)c2=O)cccc1C(F)(F)F` [US9695131, 33] registered an IC50 of 4.9 nM. As for `COC(=O)CCNC(=O)c1cn(-c2ccc(N3CCNC3=O)cc2)c(=O)n(Cc2cccc(C(F)(F)F)c2C)c1=O` [US9695131, 53], the midpoint of inhibition, the IC50, lay at 180 nM. The compound `COc1ccc(-n2cc(-c3noc(=O)[nH]3)c(=O)n(Cc3cccc(C(F)(F)F)c3C)c2=O)cc1` [US9695131, 37] returned a 50% inhibitory concentration (IC50) of 76 nM.

As for `COc1ccc(-n2cc(-c3nnn[nH]3)c(=O)n(Cc3cccc(C(F)(F)F)c3C)c2=O)cc1OC` [US9695131, 20], the IC50 turned out to be 22 nM. As for `COc1ccc(-n2cc(-c3nsc(=O)[nH]3)c(=O)n(Cc3cccc(C(F)(F)F)c3C)c2=O)cc1OC` [US9695131, 40], the figure is 12 nM; as for `Cc1c(Cn2c(=O)c(C(=O)NC(C)C(=O)O)cn(-c3ccc(N4CCNC4=O)cc3)c2=O)cccc1C(F)(F)F` (racemic) [US9695131, 45], 25 nM. As to `Cn1c(=O)oc2cc(-n3cc(C(=O)NC#N)c(=O)n([C@@H]4CCc5c4cccc5C(F)(F)F)c3=O)ccc21` [US9695131, 63], the midpoint of inhibition, the IC50, lay at 2.6 nM. In the case of `Cc1c(Cn2c(=O)c(-c3noc(=O)[nH]3)cn(-c3ccc(N4CCNC4=O)cc3)c2=O)cccc1C(F)(F)F` [US9695131, 34] it was 55 nM; in that of `Cc1c(Cn2c(=O)c(C(=O)NC(C)C(=O)O)cn(-c3ccc4c(c3)C(C)(C)C(=O)N4C)c2=O)cccc1C(F)(F)F` (racemic) [US9695131, 47], 4.2 nM. On to `Cc1c(Cn2c(=O)c(-c3nnn[nH]3)cn(-c3ccc4c(c3)n(C)c(=O)n4C)c2=O)cccc1C(F)(F)F` [US9695131, 19], for which half-maximal inhibition (IC50) was put at 5.8 nM. As for `COc1ccc(-n2cc(-c3nnn[nH]3)c(=O)n(Cc3cccc(Cl)c3Cl)c2=O)cc1` [US9695131, 27], the midpoint of inhibition, the IC50, lay at 130 nM. Regarding `Cn1c(=O)n(C)c2cc(-n3cc(C#N)c(=O)n(C4CCc5c(Cl)cccc54)c3=O)ccc21` (racemic) [US9695131, 7], the IC50 was found to be 37 nM.

`Cn1c(=O)oc2cc(-n3cc(C#N)c(=O)n([C@@H]4CCc5c4cccc5C(F)(F)F)c3=O)ccc21` [US9695131, 2] displayed an IC50 of 18 nM. `Cc1c(Cn2c(=O)c(C(=O)NC3(C(=O)O)CCC3)cn(-c3ccc4c(c3)n(C)c(=O)n4C)c2=O)cccc1C(F)(F)F` [US9695131, 51] showed an IC50 of 3 nM. In turn, `Cc1c(Cn2c(=O)c(-c3nnn[nH]3)cn(-c3ccc(N4CCOC4=O)cc3)c2=O)cccc1C(F)(F)F` [US9695131, 25] displayed an IC50 of 30 nM. In the case of `Cc1c(Cn2c(=O)c(-c3noc(=O)[nH]3)cn(-c3ccc(N4CCOC4=O)cc3)c2=O)cccc1C(F)(F)F` [US9695131, 35], inhibition was half-maximal at 36 nM (IC50). `COC(=O)C(COC(C)(C)C)NC(=O)c1cn(-c2ccc(N3CCNC3=O)cc2)c(=O)n(Cc2cccc(C(F)(F)F)c2C)c1=O` (centres undefined) [US9695131, 60] gave an IC50 of 1590 nM. As to `Cn1c(=O)sc2cc(-n3cc(C#N)c(=O)n(C4CCc5c(Cl)cccc54)c3=O)ccc21` (racemic) [US9695131, 8], the IC50 was determined as 53 nM. As for `Cc1c(Cn2c(=O)c(-c3nnn[nH]3)cn(-c3ccc(N4CCNC4=O)cc3)c2=O)cccc1C(F)(F)F` [US9695131, 21], the figure is 32 nM.

`Cc1c(Cn2c(=O)c(C#N)cn(-c3ccc(N4CCOC4=O)cc3)c2=O)cccc1C(F)(F)F` [US9695131, 5] showed an IC50 of 29 nM.

In general, IC50 refers to the midpoint of a concentration-inhibition curve. The low end stands for inhibition by little substance, the high end for a need for much substance.
